Assay: Microsomal metabolic stability
Format: in vitro ADME
Settings: 30 minutes at 37°C, rat microsomes
Procedure: Metabolic stability was conducted using pooled microsomes from non-induced male Sprague-Dawley rats. J-147 was incubated for 30 minutes at 37°C at concentrations of 1 μM. Subsequent HPLC analysis using a Waters Alliance 2795 in combination with a Waters Quattro Premier mass spectrometer measured disappearance of the parent molecule. The compounds were run on a Waters X-BridgeC18 (186003021) 50 × 2.1 mm column with 3.5 micron particle packing at a flow rate of 1 ml/min and with the temperature maintained at 50°C. Solvent A was water with 0.1% formic acid. Solvent B was acetonitrile with 0.07% formic acid. The data for 3 replicates are expressed as percent of parent remaining.

Question: For Cc1ncc2n1-c1ccc(Cl)cc1C(c1ccccc1F)=NC2 [Midazolam, reference compound], which “Metabolism Ranking” value (1 μM) is on record?
Answer: Its value is “High (<45=high)”.

Question: And the remaining at 0.5 h, 1 μM (male, Sprague-Dawley, pooled microsomes from non-induced rats, percent of parent remaining)?
Answer: Its remaining at 0.5 h, 1 μM is 0 to 3%.
